Measurements as given in patent publication US9302999B2, “Substituted triazoles as herbicides” (E. I. DU PONT DE NEMOURS AND COMPANY, priority 2012, dated 2016).

Legend:
Format in all cases: in vivo
[1] = tested on: barnyardgrass (Echinochloa crus-galli); assay: Test A pre-/postemergence: barnyardgrass; settings: for Barnyardgrass plant response rating: Postemergence; for Plant response rating, Barnyardgrass: Preemergence
Method in brief: (§1)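 Soil medium was loam blended with sand; treatments pre- and postemergence were applied concurrently, postemergence at one- to two-leaf stage. Approximately ten days in greenhouse preceded visual comparison with untreated controls, scored 0 (no effect) to 100 (complete control).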

corn (Zea mays) = assay: Test A pre-/postemergence: corn; settings: for Corn plant response rating: Postemergence; for Plant response rating, Corn: Preemergence
Method in brief: as §1

[2] = tested on: morningglory (Ipomoea spp.); assay: Test A pre-/postemergence: morningglory; settings: for Morningglory plant response rating: Postemergence; for Plant response rating, Morningglory: Preemergence
Method in brief: as §1

[3] = tested on: sedge, umbrella (small-flower umbrella sedge, Cyperus difformis); assay: Test C flooded paddy test: sedge, umbrella; settings: scale 0 to 100 (0 no effect, 100 complete control)
Source text: (§2) Plant species in the flooded paddy test consisted of rice (Oryza sativa), sedge, umbrella (small-flower umbrella sedge, Cyperus difformis), ducksalad (Heteranthera limosa) and barnyardgrass (Echinochloa crus-galli) grown to the 2-leaf stage for testing. At time of treatment, test pots were flooded to 3 cm above the soil surface, treated by application of test compounds directly to the paddy water, and then maintained at that water depth for the duration of the test.
(§3) Treated plants and controls were maintained in a greenhouse for 13 to 15 days, after which time all species were compared to controls and visually evaluated. Plant response ratings, summarized in Table C, are based on a scale of 0 to 100 where 0 is no effect and 100 is complete control. A dash (-) response means no test result.

[4] = tested on: barnyardgrass (Echinochloa crus-galli); assay: Test C flooded paddy test: barnyardgrass; settings: scale 0 to 100 (0 no effect, 100 complete control)
Source text: as §2, §3

[5] = tested on: ducksalad (Heteranthera limosa); assay: Test C flooded paddy test: ducksalad; settings: scale 0 to 100 (0 no effect, 100 complete control)
Source text: as §2, §3

[6] = tested on: wheat (Triticum aestivum); assay: Test A pre-/postemergence: wheat; settings: for Wheat plant response rating: Postemergence; for Plant response rating, Wheat: Preemergence
Method in brief: as §1

[7] = tested on: velvetleaf (Abutilon theophrasti); assay: Test A pre-/postemergence: velvetleaf; settings: for Velvetleaf plant response rating: Postemergence; for Plant response rating, Velvetleaf: Preemergence
Method in brief: as §1

[8] = tested on: crabgrass, large (large crabgrass, Digitaria sanguinalis); assay: Test A pre-/postemergence: crabgrass, large; settings: for Crabgrass, Large plant response rating: Postemergence; for Plant response rating, Crabgrass, Large: Preemergence
Method in brief: as §1

rice (Oryza sativa) = assay: Test C flooded paddy test: rice; settings: scale 0 to 100 (0 no effect, 100 complete control)
Source text: as §2, §3

[9] = tested on: foxtail, giant (giant foxtail, Setaria faberii); assay: Test A pre-/postemergence: foxtail, giant; settings: for Foxtail, Giant plant response rating: Postemergence; for Plant response rating, Foxtail, Giant: Preemergence
Method in brief: as §1

[10] = tested on: pigweed (Amaranthus retroflexus); assay: Test A pre-/postemergence: pigweed; settings: for Pigweed plant response rating: Postemergence; for Plant response rating, Pigweed: Preemergence
Method in brief: as §1

[11] = 125 g ai/ha, 0 to 100 scale, 0 is no effect, 100 is complete control
[12] = 500 g ai/ha, visual rating on 0 to 100 scale (0 no effect, 100 complete control), approximately ten days
[13] = 125 g ai/ha, 0 to 100 scale (0 no effect, 100 complete control)
[14] = 500 g ai/ha, 0 to 100 scale, 0 is no effect, 100 is complete control
[15] = Flood (flooded paddy test), 62 g ai/ha, visual rating after 13 to 15 days
[16] = Flood (flooded paddy test), 125 g ai/ha, visual rating after 13 to 15 days
[17] = Flood (flooded paddy test), 250 g ai/ha, visual rating after 13 to 15 days
[18] = 125 g ai/ha, 0 to 100 scale where 0 is no effect and 100 is complete control

Cc1nn(-c2ccc(C(F)(F)F)cn2)nc1Cn1nc(C(F)(F)F)cc1C [Compound 21]
0: Barnyardgrass plant response rating [1, 11] | Plant response rating, Barnyardgrass [1, 13] | Corn plant response rating (corn (Zea mays); [11]) | Plant response rating, Corn (corn (Zea mays); [13]) | Plant response rating, Corn (corn (Zea mays); [14]) | Plant response rating, Morningglory [2, 13] | Plant response rating, Morningglory [2, 14] | Plant response rating, Sedge, Umbrella [3, 15] | Plant response rating, Sedge, Umbrella [3, 16] | Plant response rating, Sedge, Umbrella [3, 17] | Plant response rating, Sedge, Umbrella ([3]; Flood, 31 g ai/ha) | Plant response rating, Barnyardgrass [4, 15] | Plant response rating, Barnyardgrass [4, 16] | Plant response rating, Barnyardgrass [4, 17] | Plant response rating, Barnyardgrass ([4]; Flood, 31 g ai/ha) | Plant response rating, Ducksalad [5, 15] | Plant response rating, Ducksalad [5, 16] | Plant response rating, Ducksalad [5, 17] | Plant response rating, Ducksalad ([5]; Flood, 31 g ai/ha) | Wheat plant response rating [6, 11] | Wheat plant response rating [6, 12] | Plant response rating, Wheat [6, 13] | Plant response rating, Wheat [6, 14] | Plant response rating, Velvetleaf [7, 13] | Plant response rating, Velvetleaf [7, 14] | Plant response rating, Crabgrass, Large [8, 13] | Plant response rating, Rice (rice (Oryza sativa); [15]) | Plant response rating, Rice (rice (Oryza sativa); [16]) | Plant response rating, Rice (rice (Oryza sativa); [17]) | Plant response rating, Rice (rice (Oryza sativa); Flood, 31 g ai/ha) | Foxtail, Giant plant response rating [9, 11] | Plant response rating, Foxtail, Giant [9, 13] | Plant response rating, Pigweed [10, 13]
80: Pigweed plant response rating [10, 12]
30: Plant response rating, Foxtail, Giant [9, 14]
60: Plant response rating, Crabgrass, Large [8, 14] | Pigweed plant response rating [10, 11]
50: Plant response rating, Pigweed [10, 14]
10: Barnyardgrass plant response rating [1, 12] | Plant response rating, Barnyardgrass [1, 14] | Corn plant response rating (corn (Zea mays); [12]) | Velvetleaf plant response rating [7, 11] | Foxtail, Giant plant response rating [9, 12]
40: Morningglory plant response rating [2, 12] | Crabgrass, Large plant response rating [8, 12]
20: Morningglory plant response rating [2, 11] | Velvetleaf plant response rating [7, 12] | Crabgrass, Large plant response rating [8, 11]

Cc1nn(-c2ccc(F)cc2)nc1Oc1ccc(Cl)c(C(F)(F)F)c1 [Compound 99]
70: Crabgrass, Large plant response rating [8, 12] | Pigweed plant response rating [10, 11]
80: Morningglory plant response rating [2, 12] | Foxtail, Giant plant response rating [9, 12] | Plant response rating, Foxtail, Giant [9, 14]
10: Barnyardgrass plant response rating [1, 11] | Plant response rating, Barnyardgrass [1, 14] | Velvetleaf plant response rating [7, 11] | Plant response rating, Foxtail, Giant [9, 18]
30: Barnyardgrass plant response rating [1, 12] | Crabgrass, Large plant response rating [8, 11] | Plant response rating, Crabgrass, Large [8, 13]
0: Plant response rating, Barnyardgrass [1, 13] | Plant response rating, Corn (corn (Zea mays); [13]) | Plant response rating, Corn (corn (Zea mays); [14]) | Plant response rating, Morningglory [2, 18] | Plant response rating, Morningglory [2, 14] | Wheat plant response rating [6, 11] | Plant response rating, Wheat [6, 18] | Plant response rating, Wheat [6, 14] | Plant response rating, Velvetleaf [7, 18]
100: Pigweed plant response rating [10, 12]
20: Corn plant response rating (corn (Zea mays); [11]) | Corn plant response rating (corn (Zea mays); [12]) | Wheat plant response rating [6, 12] | Plant response rating, Velvetleaf [7, 14] | Foxtail, Giant plant response rating [9, 11] | Plant response rating, Pigweed [10, 18]
60: Morningglory plant response rating [2, 11] | Velvetleaf plant response rating [7, 12] | Plant response rating, Crabgrass, Large [8, 14] | Plant response rating, Pigweed [10, 14]

Cc1nn(-c2ccc(C(F)(F)F)cc2)nc1Oc1ccc(Cl)c(C(F)(F)F)c1 [Compound 103]
70: Pigweed plant response rating [10, 12]
50: Pigweed plant response rating [10, 11]
10: Velvetleaf plant response rating [7, 12] | Plant response rating, Crabgrass, Large [8, 14] | Plant response rating, Pigweed [10, 18]
20: Foxtail, Giant plant response rating [9, 12]
0: Barnyardgrass plant response rating [1, 11] | Barnyardgrass plant response rating [1, 12] | Plant response rating, Barnyardgrass [1, 13] | Plant response rating, Barnyardgrass [1, 14] | Corn plant response rating (corn (Zea mays); [11]) | Corn plant response rating (corn (Zea mays); [12]) | Plant response rating, Corn (corn (Zea mays); [13]) | Plant response rating, Corn (corn (Zea mays); [14]) | Morningglory plant response rating [2, 11] | Morningglory plant response rating [2, 12] | Plant response rating, Morningglory [2, 18] | Plant response rating, Morningglory [2, 14] | Wheat plant response rating [6, 11] | Wheat plant response rating [6, 12] | Plant response rating, Wheat [6, 18] | Plant response rating, Wheat [6, 14] | Velvetleaf plant response rating [7, 11] | Plant response rating, Velvetleaf [7, 18] | Plant response rating, Velvetleaf [7, 14] | Crabgrass, Large plant response rating [8, 11] | Plant response rating, Crabgrass, Large [8, 13] | Foxtail, Giant plant response rating [9, 11] | Plant response rating, Foxtail, Giant [9, 18] | Plant response rating, Foxtail, Giant [9, 14]
30: Crabgrass, Large plant response rating [8, 12] | Plant response rating, Pigweed [10, 14]
